Experiments:
[1] = target: T1, human α1G T-type channels (Homo sapiens, UniProt O43497); assay: T-type calcium channel block, whole cell patch clamp in HEK cells (α1G); format: cell-based; details: HEK cells, patch clamp, mainly non-inactivated protocol; values above 10 μM shown as 10 μM, below 0.30 μM shown as 0.30 μM; read-out: T-type Calcium Channel Block α1G IC50
T1 construct: expressed in transfected cells; host or cells: HEK 293

[2] = target: T2, human α1H T-type channels (Homo sapiens, UniProt O95180); assay: T-type calcium channel block, whole cell patch clamp in HEK cells (α1H); format: cell-based; details: HEK cells, patch clamp, mainly non-inactivated protocol; values above 10 μM shown as 10 μM; read-out: T-type Calcium Channel Block α1H IC50
T2 construct: expressed in transfected cells; host or cells: HEK 293
T2 sequence (O95180 whole entry): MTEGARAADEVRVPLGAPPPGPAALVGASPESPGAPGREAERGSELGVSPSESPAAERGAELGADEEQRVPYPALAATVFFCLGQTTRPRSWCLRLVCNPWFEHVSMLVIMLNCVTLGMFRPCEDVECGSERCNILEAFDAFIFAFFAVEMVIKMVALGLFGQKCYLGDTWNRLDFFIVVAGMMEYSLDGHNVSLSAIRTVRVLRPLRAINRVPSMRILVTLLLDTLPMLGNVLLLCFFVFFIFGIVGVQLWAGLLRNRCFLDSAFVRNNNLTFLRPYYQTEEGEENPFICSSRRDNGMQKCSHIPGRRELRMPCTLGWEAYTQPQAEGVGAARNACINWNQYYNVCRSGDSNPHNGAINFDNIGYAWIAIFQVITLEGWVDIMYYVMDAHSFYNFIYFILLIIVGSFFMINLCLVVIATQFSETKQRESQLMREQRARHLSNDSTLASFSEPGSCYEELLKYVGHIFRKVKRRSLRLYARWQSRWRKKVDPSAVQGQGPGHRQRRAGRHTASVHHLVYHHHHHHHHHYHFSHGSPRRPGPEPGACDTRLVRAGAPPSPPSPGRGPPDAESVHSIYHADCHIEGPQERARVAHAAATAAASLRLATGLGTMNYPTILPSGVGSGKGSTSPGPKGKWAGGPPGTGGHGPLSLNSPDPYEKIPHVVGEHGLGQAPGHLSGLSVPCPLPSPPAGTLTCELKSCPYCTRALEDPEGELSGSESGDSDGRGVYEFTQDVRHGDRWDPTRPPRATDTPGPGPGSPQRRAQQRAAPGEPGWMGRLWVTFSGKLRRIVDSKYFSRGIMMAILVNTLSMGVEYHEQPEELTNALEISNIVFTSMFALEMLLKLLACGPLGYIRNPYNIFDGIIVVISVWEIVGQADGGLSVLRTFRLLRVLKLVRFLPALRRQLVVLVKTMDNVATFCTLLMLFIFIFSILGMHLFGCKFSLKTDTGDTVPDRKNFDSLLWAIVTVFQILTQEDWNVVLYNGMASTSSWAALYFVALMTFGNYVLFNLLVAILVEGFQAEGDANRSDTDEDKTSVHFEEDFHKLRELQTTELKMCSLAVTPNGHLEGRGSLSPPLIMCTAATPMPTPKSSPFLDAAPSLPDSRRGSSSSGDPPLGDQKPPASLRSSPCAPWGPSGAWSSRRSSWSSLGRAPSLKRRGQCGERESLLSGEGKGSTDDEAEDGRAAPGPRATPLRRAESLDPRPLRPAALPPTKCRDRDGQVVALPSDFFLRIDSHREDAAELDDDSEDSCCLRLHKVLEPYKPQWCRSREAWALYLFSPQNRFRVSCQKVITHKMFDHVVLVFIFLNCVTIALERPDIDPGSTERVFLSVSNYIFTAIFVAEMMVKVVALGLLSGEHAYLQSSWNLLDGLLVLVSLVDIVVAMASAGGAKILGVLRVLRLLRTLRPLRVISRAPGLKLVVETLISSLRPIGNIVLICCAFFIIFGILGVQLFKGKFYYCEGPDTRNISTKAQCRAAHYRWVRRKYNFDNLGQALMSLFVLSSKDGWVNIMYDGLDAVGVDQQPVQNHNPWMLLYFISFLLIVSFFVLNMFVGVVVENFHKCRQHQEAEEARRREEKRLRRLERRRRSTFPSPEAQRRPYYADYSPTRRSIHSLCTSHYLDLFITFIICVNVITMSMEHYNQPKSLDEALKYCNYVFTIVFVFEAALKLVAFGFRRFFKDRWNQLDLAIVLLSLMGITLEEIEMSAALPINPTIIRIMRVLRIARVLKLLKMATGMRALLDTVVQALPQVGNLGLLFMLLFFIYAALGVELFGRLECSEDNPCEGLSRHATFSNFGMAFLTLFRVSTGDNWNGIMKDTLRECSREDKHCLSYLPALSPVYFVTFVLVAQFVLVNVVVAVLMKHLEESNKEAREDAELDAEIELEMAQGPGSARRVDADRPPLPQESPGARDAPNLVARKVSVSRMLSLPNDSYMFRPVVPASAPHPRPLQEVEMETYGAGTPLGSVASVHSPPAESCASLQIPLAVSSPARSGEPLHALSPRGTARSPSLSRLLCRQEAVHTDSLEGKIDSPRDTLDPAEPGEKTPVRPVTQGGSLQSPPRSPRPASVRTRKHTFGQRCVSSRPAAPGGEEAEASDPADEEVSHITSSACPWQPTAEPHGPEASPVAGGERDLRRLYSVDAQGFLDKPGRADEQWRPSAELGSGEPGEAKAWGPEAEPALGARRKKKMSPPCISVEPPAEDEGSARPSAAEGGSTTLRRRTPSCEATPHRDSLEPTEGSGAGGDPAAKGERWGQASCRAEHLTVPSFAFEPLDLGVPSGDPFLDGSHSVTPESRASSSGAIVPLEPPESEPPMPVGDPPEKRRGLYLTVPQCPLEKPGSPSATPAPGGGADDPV

T1 sequence (O43497 whole entry): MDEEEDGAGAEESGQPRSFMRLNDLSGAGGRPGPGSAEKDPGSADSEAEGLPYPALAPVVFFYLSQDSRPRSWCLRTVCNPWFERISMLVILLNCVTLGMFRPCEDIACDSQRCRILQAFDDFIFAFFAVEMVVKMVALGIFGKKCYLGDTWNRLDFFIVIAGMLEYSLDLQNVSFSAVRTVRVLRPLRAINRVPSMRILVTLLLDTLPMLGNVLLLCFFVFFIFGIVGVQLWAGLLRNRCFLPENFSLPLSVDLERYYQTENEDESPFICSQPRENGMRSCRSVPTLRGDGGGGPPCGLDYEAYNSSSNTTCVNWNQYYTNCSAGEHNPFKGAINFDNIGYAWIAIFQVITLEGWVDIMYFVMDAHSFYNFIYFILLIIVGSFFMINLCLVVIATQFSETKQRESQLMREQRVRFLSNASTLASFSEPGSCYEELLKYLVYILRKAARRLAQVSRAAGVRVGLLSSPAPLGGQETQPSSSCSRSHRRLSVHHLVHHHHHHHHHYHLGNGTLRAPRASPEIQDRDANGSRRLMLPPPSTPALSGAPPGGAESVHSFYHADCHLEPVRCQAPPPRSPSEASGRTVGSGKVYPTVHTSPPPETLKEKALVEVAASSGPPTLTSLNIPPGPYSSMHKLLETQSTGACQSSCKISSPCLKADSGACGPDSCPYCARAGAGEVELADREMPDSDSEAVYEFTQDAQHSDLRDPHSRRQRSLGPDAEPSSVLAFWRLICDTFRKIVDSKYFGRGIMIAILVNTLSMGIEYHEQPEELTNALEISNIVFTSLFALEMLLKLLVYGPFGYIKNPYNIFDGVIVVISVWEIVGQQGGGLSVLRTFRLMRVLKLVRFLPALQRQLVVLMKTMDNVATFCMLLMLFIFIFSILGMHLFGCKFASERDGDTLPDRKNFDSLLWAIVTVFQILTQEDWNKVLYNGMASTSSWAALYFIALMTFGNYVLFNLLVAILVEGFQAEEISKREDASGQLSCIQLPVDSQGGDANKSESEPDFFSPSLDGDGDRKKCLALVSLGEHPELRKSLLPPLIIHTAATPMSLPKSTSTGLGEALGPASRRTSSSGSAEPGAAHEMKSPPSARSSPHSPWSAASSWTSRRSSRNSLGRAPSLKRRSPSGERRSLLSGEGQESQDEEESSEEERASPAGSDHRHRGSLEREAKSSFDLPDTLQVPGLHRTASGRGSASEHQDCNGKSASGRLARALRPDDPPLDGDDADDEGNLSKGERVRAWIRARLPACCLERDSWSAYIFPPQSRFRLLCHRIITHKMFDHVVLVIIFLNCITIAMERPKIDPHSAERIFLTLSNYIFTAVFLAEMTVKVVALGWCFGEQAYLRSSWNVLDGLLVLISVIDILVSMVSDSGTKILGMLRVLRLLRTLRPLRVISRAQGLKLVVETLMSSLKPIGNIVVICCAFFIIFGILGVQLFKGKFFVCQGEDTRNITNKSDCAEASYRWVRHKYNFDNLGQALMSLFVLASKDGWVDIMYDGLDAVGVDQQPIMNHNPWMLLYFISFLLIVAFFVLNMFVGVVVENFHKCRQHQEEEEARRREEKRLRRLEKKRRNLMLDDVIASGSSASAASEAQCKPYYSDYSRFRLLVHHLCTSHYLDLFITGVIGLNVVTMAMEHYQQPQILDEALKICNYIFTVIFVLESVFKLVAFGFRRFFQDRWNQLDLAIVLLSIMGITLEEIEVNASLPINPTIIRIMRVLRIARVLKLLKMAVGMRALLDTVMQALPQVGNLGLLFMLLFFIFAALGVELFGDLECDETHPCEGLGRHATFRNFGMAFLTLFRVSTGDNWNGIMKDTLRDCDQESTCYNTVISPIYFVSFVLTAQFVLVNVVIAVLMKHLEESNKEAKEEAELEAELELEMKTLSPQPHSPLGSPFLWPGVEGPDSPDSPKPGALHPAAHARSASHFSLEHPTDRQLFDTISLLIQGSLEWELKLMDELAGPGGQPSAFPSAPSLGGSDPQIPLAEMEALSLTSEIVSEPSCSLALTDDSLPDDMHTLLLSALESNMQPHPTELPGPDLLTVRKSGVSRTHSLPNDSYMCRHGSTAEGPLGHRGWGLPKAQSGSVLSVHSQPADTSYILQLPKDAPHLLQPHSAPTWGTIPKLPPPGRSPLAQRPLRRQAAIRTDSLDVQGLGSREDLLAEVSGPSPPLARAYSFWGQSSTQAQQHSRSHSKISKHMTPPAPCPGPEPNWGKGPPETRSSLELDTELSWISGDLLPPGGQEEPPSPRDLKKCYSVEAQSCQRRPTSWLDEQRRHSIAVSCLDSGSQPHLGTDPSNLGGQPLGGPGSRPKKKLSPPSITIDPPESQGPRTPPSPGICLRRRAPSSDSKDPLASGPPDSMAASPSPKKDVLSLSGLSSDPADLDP

Row | IC50 [1] | IC50 [2] | Compound
1 | 1010 nM | 370 nM | CS(=O)(=O)NC1(CN2CCC(CNC(=O)c3cc(C(F)(F)F)cc(C(F)(F)F)c3)CC2)CCCC1 [Compound 1, N-((1-((1-(methylsulfonamido)cyclopentyl)methyl)piperidin-4-yl)methyl)-3,5-bis(trifluoromethyl)benzamide]
2 | > 10000 nM | > 10000 nM | O=C(NCC1CCN(C(=O)[C@@H]2CCCCN2)CC1)c1cc(C(F)(F)F)cc(C(F)(F)F)c1 [Compound 88, (S)-N-((1-(piperidine-2-carbonyl)piperidin-4-yl)methyl)-3,5-bis(trifluoromethyl)benzamide]
3 | < 300 nM | 160 nM | O=C(NCC1CCN(CC(=O)N2CC[C@H](C(F)(F)F)C2)CC1)c1cc(F)cc(C(F)(F)F)c1 [Compound 355, (S)-3-fluoro-N-((1-(2-oxo-2-(3-(trifluoromethyl)pyrrolidin-1-yl)ethyl)piperidin-4-yl)methyl)-5-(trifluoromethyl)benzamide]
4 | 2980 nM | 1480 nM | O=C(NCC1CCN(CC(=O)N2CCC[C@@H]2C(F)(F)F)CC1)c1cccc(Cl)c1 [Compound 507, (R)-3-chloro-N-((1-(2-oxo-2-(2-(trifluoromethyl)pyrrolidin-1-yl)ethyl)piperidin-4-yl)methyl) benzamide]
5 | 2650 nM | 330 nM | O=C(CCC(F)(F)F)NCCN1CCC(CNC(=O)c2cccc(OC(F)(F)F)c2)CC1 [Compound 311, N-((1-(2-(4,4,4-trifluorobutanamido)ethyl)piperidin-4-yl)methyl)-3-(trifluoromethoxy) benzamide]
6 | < 300 nM | 190 nM | COC(=O)NC1(CN2CCC(CNC(=O)c3cc(C(F)(F)F)cc(C(F)(F)F)c3)CC2)CCCC1 [Compound 16, methyl 1-((4-((3,5-bis(trifluoromethyl)benzamido)methyl)piperidin-1-yl)methyl)cyclopentyl-carbamate]
7 | < 300 nM | 170 nM | Cc1cc(C)cc(C(=O)NCC2CCN(CC(=O)NC3(C)CCC3)CC2)c1 [Compound 475, 3,5-dimethyl-N-((1-(2-(1-methylcyclobutylamino)-2-oxoethyl)piperidin-4-yl)methyl) benzamide]
8 | < 300 nM | 160 nM | CC(C(=O)N1CCC[C@H]1C(F)(F)F)N1CCC(CNC(=O)c2cc(F)cc(Cl)c2)CC1 (stereo partly drawn) [Compound 548, 3-chloro-5-fluoro-N-((1-(1-oxo-1-((S)-2-(trifluoromethyl)pyrrolidin-1-yl)propan-2-yl)piperidin-4-yl)methyl)benzamide]
9 | 3760 nM | 6190 nM | CCOC(=O)NC(CN1CCC(CC(=O)NCc2cc(Cl)cc(Cl)c2)CC1)C(C)(C)C (stereo not shown) [Compound 224, ethyl 1-(4-(2-(3,5-dichlorobenzyl-amino)-2-oxoethyl)piperidin-1-yl)-3,3-dimethylbutan-2-ylcarbamate]
10 | < 300 nM | 300 nM | CC(C)(C)C(=O)NCCN1CCC(CNC(=O)c2cc(Br)cc(C(F)(F)F)c2)CC1 [Compound 302, 3-bromo-N-((1-(2-pivalamidoethyl)piperidin-4-yl)methyl)-5-(trifluoromethyl)benzamide]
11 | < 300 nM | 270 nM | O=C(CN1CCC(CNC(=O)c2cc(F)cc(C(F)(F)F)c2)CC1)NC1(C2CCOCC2)CC1 [Compound 561, 3-fluoro-N-((1-(2-oxo-2-(1-(tetrahydro-2H-pyran-4-yl)cyclopropylamino)ethyl)piperidin-4-yl)methyl)-5-(trifluoromethyl) benzamide]
12 | < 300 nM | 110 nM | CC(C)(C)NC(=O)CN1CCC(CNC(=O)c2cc(Cl)cc(C(F)(F)F)c2)CC1 [Compound 380, N-((1-(2-(tert-butylamino)-2-oxoethyl)piperidin-4-yl)methyl)-3-chloro-5-(trifluoromethyl)benzamide]
13 | < 300 nM | 450 nM | CCOc1cc(OCC)cc(C(=O)NCC2CCN(CC(=O)NC(C)(C)C)CC2)c1 [Compound 377, N-((1-(2-(tert-butylamino)-2-oxoethyl)piperidin-4-yl)methyl)-3,5-diethoxybenzamide]
14 | 1550 nM | 7200 nM | CC(C)(C)N/C(CN1CCC(CNC(=O)c2cc(C(F)(F)F)cc(C(F)(F)F)c2)CC1)=N\C#N [Compound 503, (Z)-N-((1-(2-(tert-buylamino)-2-(cyanoimino)ethyl)piperidin-4-yl)methyl)-3,5-bis(trifluoromethyl) benzamide]
15 | 2040 nM | 1380 nM | Cc1cc(C)cc(C(=O)NCC2CCN(CCNS(=O)(=O)C3CC3)CC2)c1 [Compound 233, N-((1-(2-(cyclopropanesulfonamido)ethyl)piperidin-4-yl)methyl)-3,5-dimethylbenzamide]
16 | < 300 nM | 30 nM | Cc1cc(F)cc(C(=O)NCC2CCN(CC(=O)NC(C)(C)C(F)(F)F)CC2)c1 [Compound 455, 3-fluoro-5-methyl-N-((1-(2-oxo-2-(1,1,1-trifluoro-2-methylpropan-2-ylamino)ethyl)piperidin-4-yl)methyl)benzamide]

Row | IC50 [1] | IC50 [2] | Compound
17 | < 300 nM | 450 nM | CC(C)(C)C(=O)NCCN1CCC(CNC(=O)c2cc(Cl)cc(C(F)(F)F)c2)CC1 [Compound 301, 3-chloro-N-((1-(2-pivalamidoethyl)piperidin-4-yl)methyl)-5-(trifluoromethyl)benzamide]
18 | < 300 nM | 500 nM | O=C(NCC1CCN(C(=O)CNC2CCCC2)CC1)c1cc(C(F)(F)F)cc(C(F)(F)F)c1 [Compound 247, N-((1-(2-(cyclopentylamino)acetyl)piperidin-4-yl)methyl)-3,5-bis(trifluoromethyl)benzamide]
19 | < 300 nM | 130 nM | COc1cc(C(=O)NCC2CCN(CC(=O)NC(C)(C)C)CC2)cc(C(F)(F)F)c1 [Compound 379, N-((1-(2-(tert-buylamino)-2-oxoethyl)piperidin-4-yl)methyl)-3-methoxy-5-(trifluoromethyl)benzamide]
20 | 1030 nM | 1550 nM | O=C(NCC1CCN(CCNS(=O)(=O)C(F)(F)F)CC1)c1ccc(C(F)(F)F)c(F)c1 [Compound 328, 3-fluoro-4-(trifluoromethyl)-N-((1-(2-(trifluoromethylsulfonamido)ethyl)piperidin-4-yl)methyl)benzamide]
21 | 310 nM | 310 nM | CN(CCN1CCC(CNC(=O)c2cc(F)cc(C(F)(F)F)c2)CC1)C(=O)C(C)(C)C [Compound 515, 3-fluoro-N-((1-(2-(N-methylpivalamido)ethyl)piperidin-4-yl)methyl)-5-(trifluoromethyl)benzamide]
22 | 9900 nM | 1470 nM | O=C(CCC(F)(F)F)NCCN1CCC(CNC(=O)c2cccc(Cl)c2)CC1 [Compound 315, 3-chloro-N-((1-(2-(4,4,4-trifluorobutanamido)ethyl)piperidin-4-yl)methyl)benzamide]
23 | 1330 nM | 1920 nM | COc1cc(F)cc(C(=O)NCC2CCN(CCNS(=O)(=O)C3CC3)CC2)c1 [Compound 321, N-((1-(2-(cyclopropanesulfonamido)ethyl)piperidin-4-yl)methyl)-3-fluoro-5-methoxybenzamide]
24 | 1050 nM | > 10000 nM | CC(C)(C)OC(=O)NCCN1CCC(CNC(=O)c2ccc(Oc3ccccc3)cc2)CC1 [Compound 57, tert-buyl 2-(4-((4-phenoxybenzamido)methyl)piperidin-1-yl)ethylcarbamate]
25 | < 300 nM | 520 nM | CCCCCNCC(=O)N1CCC(CNC(=O)c2cc(C(F)(F)F)cc(C(F)(F)F)c2)CC1 [Compound 241, N-((1-(2-(pentylamino)acetyl)piperidin-4-yl)methyl)-3,5-bis(trifluoromethyl)benzamide]
26 | 530 nM | 890 nM | CC(C)(F)CNC(=O)CN1CCC(CNC(=O)c2cc(C(F)(F)F)cc(C(F)(F)F)c2)CC1 [Compound 555, N-((1-(2-(2-fluoro-2-methylpropyl-amino)-2-oxoethyl)piperidin-4-yl)methyl)-3,5-bis(trifluoromethyl) benzamide]
27 | < 300 nM | 660 nM | CC1CCCCC1NCC(=O)N1CCC(CNC(=O)c2cc(F)cc(C(F)(F)F)c2)CC1 (stereo not shown) [Compound 274, 3-fluoro-N-((1-(2-(2-methylcyclohexylamino)acetyl)piperidin-4-yl)methyl)-5-(trifluoromethyl)benzamide]
28 | < 300 nM | 120 nM | O=C(CN1CCC(CNC(=O)c2cccc(OC(F)(F)F)c2)CC1)NC1CCCC1 [Compound 536, N-((1-(2-(cyclopentylamino)-2-oxoethyl)piperidin-4-yl)methyl)-3-(trifluoromethoxy)benzamide]
29 | 590 nM | 230 nM | O=C(NCC1CCN(CCNC(=O)C2(C(F)(F)F)CC2)CC1)c1cccc(Cl)c1 [Compound 502, 3-chloro-N-((1-(2-(1-(trifluoromethyl)cyclopropanecarbox-amido)ethyl)piperidin-4-yl)methyl) benzamide]
30 | > 10000 nM | > 10000 nM | COc1ccc(C(=O)NCC2CCN(CCNS(=O)(=O)C3CC3)CC2)cc1OC [Compound 324, N-((1-(2-(cyclopropanesulfonamido)ethyl)piperidin-4-yl)methyl)-3,4-dimethoxybenzamide]
31 | 2840 nM | > 10000 nM | CN(CC(=O)N1CCC(CNC(=O)c2cc(F)cc(C(F)(F)F)c2)CC1)C1CCCCC1 [Compound 272, N-((1-(2-(cyclohexyl(methyl)amino)acetyl)piperidin-4-yl)methyl)-3-fluoro-5-(trifluoromethyl)benzamide]
32 | > 10000 nM | > 10000 nM | CCNC(=O)N(C)CCN1CCC(CNC(=O)c2cc(F)cc(C(F)(F)F)c2)CC1 [Compound 524, N-((1-(2-(3-ethyl-1-methylureido)ethyl)piperidin-4-yl)methyl)-3-fluoro-5-(trifluoromethyl) benzamide]

From patent US8569344B2, “N-piperidinyl acetamide derivatives as calcium channel blockers” (Zalicus Pharmaceuticals Ltd., priority 2008, dated 2013)
